# Like-named read-outs stand apart in the source and are kept apart here.
# Legend:
# Bet_v_1 [1] = target: T1, Bet_v_1 (Betula pendula, UniProt P15494); experiment: Surface acoustic wave (SAW) interaction studies, determination of Kd; type: binding
# T1 construct: made in house
# T1 sequence (P15494 1-160): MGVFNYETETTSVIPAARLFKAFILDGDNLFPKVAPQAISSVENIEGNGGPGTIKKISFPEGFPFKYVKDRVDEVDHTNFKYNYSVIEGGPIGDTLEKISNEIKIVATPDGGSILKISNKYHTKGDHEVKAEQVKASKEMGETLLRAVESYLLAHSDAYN
# Text: (§1) Surface acoustic wave (SAW) technology and NMR spectroscopy were used to observe the interaction of Bet_v_1 with the selected compounds, including determination of the dissociation constant (K d). The influence of ligand binding on the secondary structure elements and the thermal stability of Bet_v_1 was monitored using circular dichroism (CD, JASCO J‐815 spectropolarimeter, Jasco) and Fourier transform infrared (FTIR) spectroscopy (Tensor II FTIR system, Bruker Optics Inc). A detailed description of these methods is available (Appendix [Link], [Link]).
# To assess the interactions between Bet_v_1 and Q3OS, DOC, PPE1, LTA, or LPS, we determined the dissociation constants (K d) using SAW binding assays (Table 1, Figure S1), a more quantitative approach than previously described qualitative assays.11, 25 In addition, the LPS‐substructure Kdo2‐Lipid A (Kdo2) was used for binding studies, due to its more homogenous structure but similar immune stimulatory activity when compared to native LPS.
# For the determination of the affinity constant Kd, we used surface acoustic wave (SAW) technology. The interaction of the six ligands with Bet v 1 was investigated using a sam® 5BLUE biosensor instrument (Nanotemper, Munich, Germany). Bet v 1 was immobilized in PBS on the surface of a SAW CM-Dextran 3D sensor chip. […] For calculating the affinity constant Kd, different concentrations of the ligands dissolved in a 5 mM sodium phosphate buffer, pH 7.4, were applied to the Bet v 1-coupled chip. Depending on the ligand, the concentration range of the injected ligand varied between 5 µM and 500 µM. For the removal of residual ligand between the sample injections, the chip was washed with regeneration buffer (10 mM citric acid buffer, pH 2.8). The recorded SAW phase changes were analyzed using the software TraceDrawer 1.7 (Ridgeview Instruments, Uppsala, Sweden). The affinity constant Kd was calculated by kinetic evaluation and affinity/EC50 estimation. For kinetic evaluation, an OneToOne curve fit was chosen to match the raw data. Experiments were performed with two coated chips in duplicate, and the coupling efficiency was evaluated using a mouse monoclonal anti-Bet v 1 antibody.
# [2] = target: T2, Bet v 1 / human cathepsin S (Betula pendula, UniProt P15494); experiment: Bet v 1 in vitro proteolytic degradation assay with cathepsin S; type: biochemical; details: Bet v 1 20 µM, ligand 100 µM, cathepsin S 1 µM, pH 5.0, 0-24 h, SDS-PAGE
# T2 construct: made in house
# T2 sequence (P15494 2-160 limits assumed): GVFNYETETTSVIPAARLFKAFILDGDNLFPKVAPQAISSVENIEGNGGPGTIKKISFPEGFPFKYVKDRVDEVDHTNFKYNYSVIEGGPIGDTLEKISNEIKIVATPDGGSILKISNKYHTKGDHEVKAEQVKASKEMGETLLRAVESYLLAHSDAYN
# Method: (§2) The endolysosomal degradation assay was performed with ligand‐bound (either DOC, PPE1, or Q3OS in 10× molar excess) and Bet_v_1 without ligands (apo‐Bet_v_1) as previously described.21 Recombinant human cathepsin S and human legumain were used in proteolytic degradation assays. Experimental details are described in the Appendix [Link], [Link].
# (§3) Recombinant human cathepsin S and human legumain were heterologously expressed and purified as described previously.^9,10 Bet v 1 (20 µM) was incubated with ligand (100 µM) in digestion buffer (0.1 M sodium acetate, pH 5.0, 0.1 M sodium chloride, 5 mM EDTA, and 2 mM DTT) at room temperature prior to the addition of cathepsin S (1 µM) or legumain (2 µM). […] At each time point, the reaction was halted by the addition of E64 (for cathepsin S) or YVAD-CMK (for legumain) at a final concentration of 50 µM, and analyzed by SDS-PAGE. Control reactions without the addition of protease were performed. The generated peptides were analyzed using mass spectrometry.
# Bet v 1 / human legumain = target: T3, Bet v 1 / human legumain (Betula pendula, UniProt P15494); experiment: Bet v 1 in vitro proteolytic degradation assay with legumain; type: biochemical; details: Bet v 1 20 µM, ligand 100 µM, legumain 2 µM, pH 5.0, 0-24 h, SDS-PAGE
# T3 construct: made in house
# T3 sequence (P15494 2-160 limits assumed): T2 sequence (P15494 2-160 limits assumed)
# Method: as §2, §3
# Bet_v_1 [3] = target: T1, Bet_v_1; details: read-out: K d of ANS, previously published; cited from earlier work
# Bet_v_1 [4] = target: T1, Bet_v_1; experiment: NMR spectroscopy (1H-15N HSQC) binding confirmation; details: for NMR (binding confirmation, K d): 15N-labeled Bet v 1, direct measurement of Kd prevented by intermediate exchange; for specific binding to Bet v 1 (1H-15N HSQC spectra): absence vs presence of compound
# Text: as §1
# To validate the interactions determined by SAW, we used NMR spectroscopy to test the specific binding of PPE1, LTA, LPS, and Kdo2 to Bet_v_1 (Table 1, Figure S2). […] The commercially available PPA1 was used as a substitute for PPE1 to identify the phytoprostane binding site(s).
# The NMR data were acquired with either a 600 or 800 MHz Agilent DD2 spectrometer with a cryogenically cooled probe using the pulse sequence gNhsqc. Bet v 1 assignments were taken from.^2 The experiments were performed under the following conditions: LTA: 45 µM Bet v 1 and 300 µM LTA in PBS, 10% ^2H2O, 60 µM DSS; PPE1: 25 µM Bet v 1 and 2 µM PPE1 in PBS, 5% ^2H-(d6) DMSO, 10% ^2H2O, 60 µM DSS; PPA1: 100 µM Bet v 1 and 302 µM PPA1 (Cayman Chemical, MI, USA) in PBS, 8.7% ^2H-(d6) DMSO, 10% ^2H2O, 60 µM DSS; LPS: 100 µM Bet v 1 and 400 µM LPS in PBS pH 7.4, 10% ^2H2O, 60 µM DSS. Kdo2: 100 µM Bet v 1 and 422 µM Kdo2 in PBS pH 7.0, 10% ^2H2O, 8.6% ^2H-(d6) DMSO, 60 µM DSS.
# cathepsin S = target: T4, cathepsin S (Homo sapiens, UniProt P25774); experiment: Enzymatic activity assay, fluorogenic substrate Z-VVR-AMC; type: biochemical
# T4 construct: made in house
# T4 sequence (P25774 115-331): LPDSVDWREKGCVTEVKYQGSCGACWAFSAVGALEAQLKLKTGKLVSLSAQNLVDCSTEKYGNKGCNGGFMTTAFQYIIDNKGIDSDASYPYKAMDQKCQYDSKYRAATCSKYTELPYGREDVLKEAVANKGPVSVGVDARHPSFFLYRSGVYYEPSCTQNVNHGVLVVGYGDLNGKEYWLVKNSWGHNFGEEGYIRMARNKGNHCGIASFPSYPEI
# Method: To evaluate the influence of Bet_v_1 ligands on cathepsin S and legumain activities, 10 nmol/L of protease was incubated with 100 µmol/L of ligand (unless otherwise stated) and 50 µmol/L of fluorogenic substrate in digestion buffer (0.1 mol/L sodium acetate pH 5.0, 0.1 mol/L sodium chloride, 5 mmol/L EDTA, and 2 mmol/L DTT), as described in the Appendix [Link], [Link]. The effect of birch pollen extract (BPE) (20‐200 µg/mL) on the cathepsin S and legumain activities was assessed in parallel. The inhibitory effect of PPE1 was assessed by replacing DTT with 0.5 mmol/L TCEP. Activities of recombinant rat cathepsin B (provided by Dr Lukas Mach) and papain (Merck) at 10 nmol/L were assayed using Z‐FR‐AMC (Bachem) as a fluorogenic substrate.
# For the detection of cathepsin or legumain activities in the microsomal fraction, 8 µg of microsomal extract was incubated with 50 µM fluorogenic substrate with or without inhibitor in assay buffer (100 mM citrate pH 4.8 and 2 mM DTT). The enzymatic reactions were carried out in a 50 µL reaction volume in a 96-half-well black flat bottom assay plate (Corning Inc., Corning, NY, USA) at 37°C. The fluorescence signal was recorded using a Tecan Infinite-200 plate reader (Tecan, Männedorf, Switzerland) at an excitation wavelength of 380 nm and emission wavelength of 460 nm for 15 min of continuous measurement with a 30-s interval reading. The fluorogenic substrates used for cathepsin S and legumain were Z-VVR-AMC and Z-AAN-AMC (Bachem, Bubendorf, Switzerland), respectively. The inhibitors used for cathepsin S and legumain were Z-FL-COCHO (Sigma-Aldrich, CA, USA) and Ac-YVAD-CMK (Bachem), respectively^11.
# Bet_v_1 [5] = target: T1, Bet_v_1; experiment: LPS pull-down assay; type: binding, Betula verrucosa; details: LPS immobilized on Strep‐Tactin Sepharose beads
# Method: To investigate whether Bet v 1 binds LPS, a pull-down assay using biotinylated ultrapure E. coli O111:B4 LPS (InvivoGen, San Diego, CA, USA) was performed as previously described.^3 In short, biotinylated LPS was immobilized on Strep-Tactin Sepharose beads (IBA Lifesciences, Göttingen, Germany) and incubated with Bet v 1 for 20 min at room temperature. Unbound protein was washed off and beads were analyzed by SDS-PAGE. As control, the individual components (Bet v 1, biotinylated LPS and Strep-Tactin Sepharose beads), and Bet v 1+beads to exclude unspecific binding, were analyzed.
# [6] = Bet v 1 immobilized on chip, ligands in 5 mM sodium phosphate buffer pH 7.4, read-out: Binding affinity K d (SAW)
# [7] = Fig. S1 sensorgrams, read-out: Kd (SAW, Fig. S1)
Compound,processing (degradation) of Bet v 1 by cathepsin S [2],processing (degradation) of Bet v 1 by legumain (Bet v 1 / human legumain),Kd (Bet_v_1 [1]; [6]) [µM],Kd (Bet_v_1 [1]; [7]) [µM],"NMR (binding confirmation, K d) (Bet_v_1 [4])",specific binding to Bet v 1 (1H-15N HSQC spectra) (Bet_v_1 [4]),further results
"O=S(=O)(O)c1cccc2cccc(Nc3ccccc3)c12 [ANS, 8‐anilinonaphthalene‐1‐sulfonic acid]",no detectable,no detectable,–,–,–,–,"Kd (Bet_v_1 [1]; Binding affinity K d (SAW), Bet v 1 immobilized on chip, ligands in 5 mM sodium phosphate buffer pH 7.4): 32.7 µM; Kd (Bet_v_1 [1]; Kd (SAW, Fig. S1), Fig. S1 sensorgrams): 32.7 µM; Kd (Bet_v_1 [3]): 18.5 µM"
"CCCCCCCCCCCCCC(=O)O[C@H](CCCCCCCCCCC)CC(=O)O[C@@H]1[C@@H](NC(=O)C[C@@H](CCCCCCCCCCC)OC(=O)CCCCCCCCCCC)[C@H](OC[C@H]2O[C@H](OP(=O)(O)O)[C@H](NC(=O)C[C@H](O)CCCCCCCCCCC)[C@@H](OC(=O)C[C@H](O)CCCCCCCCCCC)[C@@H]2O)O[C@H](CO[C@]2(C(=O)O)C[C@@H](O[C@]3(C(=O)O)C[C@@H](O)[C@@H](O)[C@@H]([C@H](O)CO)O3)[C@@H](O)[C@@H]([C@H](O)CO)O2)[C@H]1OP(=O)(O)O [Kdo2, Kdo2‐Lipid A]",–,–,380,380,No significant interactions,No significant interactions,–
"O=C1C[C@@H](c2ccc(O)cc2)Oc2cc(O)cc(O)c21 [Naringenin, naringenin]",minor,minor,–,–,–,–,–
"CCC(O)/C=C/C1C(O)CC(O)C1CCCCCCCC(=O)O (stereo not shown) [PPF1, F1‐phytoprostanes]",–,–,2.4,–,–,–,"cathepsin S activity with phytohormones structurally related to PPE1 (cathepsin S; 0.1 mmol/L, 15 min (Figure 4B)): did not inhibit"
"CCCCCCCCCCCCOS(=O)(=O)[O-].[Na+] [SDS, sodium dodecyl sulfate]",significantly accelerated,significantly accelerated,–,–,–,–,"cathepsin S fluorogenic activity (cathepsin S; 10 nmol/L protease, 100 µmol/L ligand, 50 µmol/L substrate, pH 5.0, 2 mmol/L DTT (Figure 3A)): reduced the cleavage of fluorogenic substrates"
lipopolysaccharide [LPS],–,–,185,185,No significant interactions,No significant interactions,binding of Bet v 1 to biotinylated LPS (pull-down) (Bet_v_1 [5]): do not specifically bind
lipoteichoic acid [LTA],–,–,200,200,No significant interactions,No significant interactions,–

# Source: PMC6910946, “Multiple roles of Bet v 1 ligands in allergen stabilization and modulation of endosomal protease activity” (Allergy, 2019)
